Measurements from paper PMC7880690, “Chemical genetics and proteome-wide site mapping reveal cysteine MARylation by PARP-7 on immune-relevant protein targets” (eLife, 2021).

Columns and labels:
[1] = target: T1, GFP-WT-PARP-7 (Homo sapiens, UniProt Q7Z3E1); experiment: Labeling by orthogonal NAD+ analogs in HEK 293T lysates expressing GFP-WT-PARP-7; assay type: biochemical; conditions: HEK 293 T cell lysates, 100 µM NAD+ analog
T1 construct: expressed in transfected cells; host or cells: HEK 293T
T1 sequence (Q7Z3E1 1-657): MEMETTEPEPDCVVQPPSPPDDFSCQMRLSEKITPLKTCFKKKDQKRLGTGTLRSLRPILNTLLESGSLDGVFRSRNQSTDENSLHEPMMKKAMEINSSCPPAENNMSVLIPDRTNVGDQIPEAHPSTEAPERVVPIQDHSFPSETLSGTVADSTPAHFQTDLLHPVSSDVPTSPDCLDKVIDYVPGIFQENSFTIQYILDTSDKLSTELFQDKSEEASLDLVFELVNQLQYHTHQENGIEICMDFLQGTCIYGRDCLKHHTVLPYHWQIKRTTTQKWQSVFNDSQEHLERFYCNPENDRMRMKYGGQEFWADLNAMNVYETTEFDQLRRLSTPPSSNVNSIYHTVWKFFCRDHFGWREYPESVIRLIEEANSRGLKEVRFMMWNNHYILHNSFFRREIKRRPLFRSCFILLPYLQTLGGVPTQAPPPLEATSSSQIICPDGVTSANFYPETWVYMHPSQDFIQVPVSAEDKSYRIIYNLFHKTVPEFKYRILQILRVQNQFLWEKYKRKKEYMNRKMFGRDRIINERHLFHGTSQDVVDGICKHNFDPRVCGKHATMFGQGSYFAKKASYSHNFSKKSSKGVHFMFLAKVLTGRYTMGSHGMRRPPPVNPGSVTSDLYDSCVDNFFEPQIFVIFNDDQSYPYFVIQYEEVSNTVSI
Description: Figure 1. A chemical genetic strategy for identifying the direct MARylation targets of PARP-7. (a) Schematic of chemical genetic approach for identifying direct targets of PARP-7. (b) Crystal structure of human PARP1 bound to the non-hydrolyzable NAD^+ analog benzamide adenine dinucleotide (BAD). PDB: 6bhv. […] (c) Chemical structure of the clickable, orthogonal NAD^+ analogs. 5-Bn-2-e-NAD^+ is the optimized substrate for the floor position engineered PARP-7, IG-PARP-7. 5-Bn-6-a-NAD^+ was used in our previous studies by other floor position engineered PARPs (e.g. PARP14). (d) 5-Bn-2-e-NAD^+ is an efficient substrate for IG-PARP-7. HEK293T cells were transfected with either GFP-WT-PARP-7 (control) or GFP-IG-PARP-7. Cell lysates were prepared and incubated with either 5-Bn-2-e-NAD^+ or 5-Bn-6-a-NAD^+ (100 µM). Following copper-catalyzed click chemistry with biotin-azide, proteins were resolved by SDS-PAGE and biotinylated proteins were detected by Western blot detection using Streptavidin-HRP. Biotinylated proteins represent direct MARylation targets of PARP-7. Figure 1—figure supplement 1. Enrichment of PARP-7 MARylation targets and labeling of PARP-12 IG targets using a chemical genetic approach. (a) Labeling of PARP-7 MARylation targets was performed as described in Figure 1. Neutravidin agarose was used to enrich biotinylated proteins (i.e. MARylation targets). […]

[2] = target: T2, GFP-PARP-7 (Homo sapiens, UniProt Q7Z3E1); experiment: Protein levels of ectopically expressed GFP-PARP-7 in HEK 293 T cell time course; conditions: HEK 293 T cell time course, 1 μM
T2 sequence (Q7Z3E1 1-657): T1 sequence (Q7Z3E1 1-657)

[3] = target: T3, PARP14wwe-cat. (Homo sapiens, UniProt Q460N5); experiment: ADP-ribosylation plate assay, PARP14wwe-cat.
T3 sequence (Q460N5 1523-1801 limits assumed): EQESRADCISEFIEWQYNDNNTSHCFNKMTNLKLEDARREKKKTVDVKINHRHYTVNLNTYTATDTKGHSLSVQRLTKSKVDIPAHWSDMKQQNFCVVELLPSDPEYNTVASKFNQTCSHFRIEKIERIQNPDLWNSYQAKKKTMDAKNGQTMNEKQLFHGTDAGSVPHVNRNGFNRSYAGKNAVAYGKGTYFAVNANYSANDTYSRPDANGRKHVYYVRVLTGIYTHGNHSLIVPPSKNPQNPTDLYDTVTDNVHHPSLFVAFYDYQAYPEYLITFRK

| SMILES | substrate for GFP-WT-PARP-7 [1] | protein levels of ectopically expressed GFP-PARP-7 [2] | IC50 [3] |
| --- | --- | --- | --- |
| C#Cc1nc(N)c2ncn(C3OC(COP(=O)(O)OP(=O)([O-])OCC4OC([n+]5cc(Cc6ccccc6)cc(C(N)=O)c5)C(O)C4O)C(O)C3O)c2n1 (stereo not drawn) [5-Bn-2-e-NAD^+, 5-benzyl-2-ethynyl-NAD^+] | not a substrate |  |  |
| N#Cc1ccc(N2CCN(C(=O)c3cc(Cc4n[nH]c(=O)c5ccccc45)ccc3F)CC2)nc1 [Phthal01, 6-(4-(2-fluoro-5-((4-oxo-3,4-dihydrophthalazin-1-yl)methyl)benzoyl)piperazin-1-yl)nicotinonitrile] |  | increased | > 10 µM |
